Data reported in patent US4849335A, “Method for detecting the mutagenicity of substances susceptible of inducing the deterioration of cellular DNA, utilizing the production of an SOS response” (priority 1982, dated 1989).

Experiments:
Format in all cases: cell-based, E. coli strain PQ37
[1] = system: sfiA::operon lacZ recombinant; conditions: FIG. 1 curve c; measured 2 hours after the start of the experiment; inhibitory concentrations
Excerpt: FIGS. 2 and 3 contain the curves representing the variations of the logarithm of the abovesaid ratio, named below SOSIF (abbreviation of "SOS induction factor"), measurable in similar cultures, in the presence of different genotoxic substances, according to their respective concentrations in the culture media, in nanomoles per specimen tested.
(§1) The micro-organism employed in the tests whose description follows is a transformed E. coli strain, named PQ37, deposited in the National Collection of Culture Micro-Organisms (C.N.C.M.) of the Pasteur Institute of Paris, under no. I-205 on the date of Sept. 24, 1982. The genetic characteristics of this micro-organism are as follows: F^- thr leu his-4 pyrD thi galE galK or T lacΔUI69 srl 300::Tn10 rpoB rpsL uvrA rfa trp::Muc^+ sfiA::Mud(AP, lac)c-Ts. It is constitutive for the synthesis of the alkaline phosphatase (Pho^c). […]
A culture of the abovesaid micro-organism previously developed up to the exponential phase in LB culture medium (Bacto tryptone 10 g, Bacto yeast extract 5 g, NaC1 10 g, water Q.S.P. 1 1), also containing ampicillin, is diluted ten times either in fresh medium, or in the activation mixture described by AMES B.N. and Coll. […] After two hours incubation at 37° C. with shaking, the β-galoactosidase and alkaline phosphatase activities were determined. […]

[2] = system: β-galactosidase; test: β-galactosidase activity in E. coli PQ37 culture; conditions: FIG. 1 curve a; beyond a certain concentration of genotoxic substance; 2 hours
Excerpt: The micro-organism employed in the tests whose description follows is a transformed E. coli strain, named PQ37, deposited in the National Collection of Culture Micro-Organisms (C.N.C.M.) of the Pasteur Institute of Paris, under no. I-205 on the date of Sept. 24, 1982. The genetic characteristics of this micro-organism are as follows: F^- thr leu his-4 pyrD thi galE galK or T lacΔUI69 srl 300::Tn10 rpoB rpsL uvrA rfa trp::Muc^+ sfiA::Mud(AP, lac)c-Ts. It is constitutive for the synthesis of the alkaline phosphatase (Pho^c).
This strain has been obtained by genetic recombinations suitable to confer on it the above-indicated genotype, from the strain containing the recombinant sfiA::lacZ deposited at the C.N.C.M., under no. I-152 Apr. 13, 1981.
A culture of the abovesaid micro-organism previously developed up to the exponential phase in LB culture medium (Bacto tryptone 10 g, Bacto yeast extract 5 g, NaC1 10 g, water Q.S.P. 1 1), also containing ampicillin, is diluted ten times either in fresh medium, or in the activation mixture described by AMES B.N. and Coll. (1975), "Mutation Research" 31, 347-364. Aliquot parts of 0.6 ml are distributed in glass test tubes each containing a certain dose of the substance under test. After two hours incubation at 37° C. with shaking, the β-galoactosidase and alkaline phosphatase activities were determined. […]

[3] = system: alkaline phosphatase; test: alkaline phosphatase activity in E. coli PQ37 culture; conditions: FIG. 1 curve b; beyond a certain concentration of genotoxic substance; 2 hours
Excerpt: as §1
A culture of the abovesaid micro-organism previously developed up to the exponential phase in LB culture medium (Bacto tryptone 10 g, Bacto yeast extract 5 g, NaC1 10 g, water Q.S.P. 1 1), also containing ampicillin, is diluted ten times either in fresh medium, or in the activation mixture described by AMES B.N. and Coll. […] After two hours incubation at 37° C. with shaking, the β-galoactosidase and alkaline phosphatase activities were determined.
It is possible in particular to carry out the determination of the alkaline phosphatase under the following condition: 2.7 ml of T buffer (solution of 121 g of Tris (hydroxy-methyl)-aminomethane per liter, whose pH has been adjusted to 8.8 with HC1) were added to 0.3 ml of the cell culture. […] 5 minutes later, 1 ml of 2 N Tris is added to restore the color, which is measured in the spectrophotometer at 420 nm. […]

O=[N+]([O-])c1cc[n+]([O-])c2ccccc12 [4NQO, 4-nitroquinoline-1-oxide]
SOSIF ratio at concentrations of the genotoxic substance which inhibit the synthesis of the proteins [1]: remains substantially constant | β-galactosidase activity (inhibiting effect of the synthesis of the proteins) [2]: reduction | alkaline phosphatase activity (inhibiting effect of the synthesis of the proteins) [3]: reduction
